Experiment: Diffusion or passage of latanoprost from the substance insert through the wall of the punctum plug
Type: physicochemical
Text: In applications where it is desired to deliver the therapeutic or diagnostic substance to or through the cornea or the eye it is desirable to cause the substance to become dissolved in the tear film TF which covers the cornea of the eye, while deterring or minimizing untoward loss of substance through other routes, such as through direct absorption into tissues surrounding the punctum and/or canaliculus LC in which the device is implanted (referred to generally herein as “pericanalicular tissue absorption”) or by drainage through the naso-lacrimal system into the nose. One way to limit or deter such loss of substance is to render all or part of the punctum plug 12, 12a impervious to the substance so that the substance cannot diffuse or pass through the wall of the punctum plug 12, 12a. This may be particularly important in embodiments where the punctum plug 12, 12a is formed of silicone or other material through which the substance can pass. […] The substance insert receiving portion 20b may have the same configuration as either of those substance insert receiving portions 20, 20a described above. However, in this embodiment, a coating 60 has been applied to the outer surface of the side wall of the substance insert receiving portion 20b. Such coating may also be applied to other portions of the punctum plug 12b or to the entire punctum plug 12b. […]

loss by diffusion or passage through the punctum plug (substance-impervious coating 60 applied to outer surface of the substance insert receiving portion and/or other portions of the punctum plug): substantially prevented
Compound: CC(C)OC(=O)CCC/C=C\C[C@@H]1[C@@H](CC[C@@H](O)CCc2ccccc2)[C@H](O)C[C@@H]1O [latanoprost]
diffusion or passage through the wall of the punctum plug (punctum plug formed of silicone, no coating, substance insert contains latanoprost): some of the latanoprost will diffuse or pass through the wall of the punctum plug

Source: patent US20100189766A1, “SUBSTANCE DELIVERING PUNCTUM IMPLANTS AND METHODS” (QLT PLUG DELIVERY, INC., priority 2008, published 2010)
